Experimental data as given in article PMC4325472, “An Expedient Synthesis, Acetylcholinesterase Inhibitory Activity, and Molecular Modeling Study of Highly Functionalized Hexahydro-1,6-naphthyridines” (BioMed Research International, 2015).

biological target: T1, acetylcholinesterase enzyme from Electrophoruselectricus (AChE enzyme from electric eel) (Electrophorus electricus, UniProt O42275); assay: biochemical; conditions: not given
T1 construct: purchased Sigma
Procedure: Cholinesterase inhibitory activity of the synthesized compounds was evaluated using the Ellman's microplate assay. For acetylcholinesterase (AChE) inhibitory assay, 140 μL of 0.1 M sodium phosphate buffer (pH 8) was first added to a 96-well microplate followed by 20 μL of test samples and 20 μL of 0.09 units/mL acetylcholinesterase enzyme from Electrophoruselectricus (Sigma). After 15 minutes of incubation at 25°C, 10 μL of 10 mM 5,5′-dithiobis-2-nitrobenzoic acid (DTNB) was added into each well followed by 10 μL of acetylthiocholine iodide (14 mM). At 30 minutes after the initiation of enzymatic reaction, absorbance of the colored end-product was measured using BioTek Power Wave X 340 Microplate Spectrophotometer at 412 nm.
Galantamine was used as positive control. Test samples and galantamine were prepared in DMSO at an initial concentration of 1 mg/mL (1000 ppm). The concentration of DMSO in final reaction mixture was 1%.
The initial screening was carried out at 10 μg/mL of test samples in 1% DMSO and each test was conducted in triplicate. Absorbencies of the test samples were corrected by subtracting the absorbance of their respective blank. Percentage enzyme inhibition is calculated using the following formula: (1) Percentage of inhibition =[…]/Absorbance of control×100. Subsequently, the determination of IC50 was carried out using a set of five concentrations.
All newly synthesized 1,6-naphthyridines were evaluated in vitro for their inhibitory potential against AChE enzyme from electric eel using colorimetric Ellman's method (Table 1).

T1 sequence (O42275 24-633): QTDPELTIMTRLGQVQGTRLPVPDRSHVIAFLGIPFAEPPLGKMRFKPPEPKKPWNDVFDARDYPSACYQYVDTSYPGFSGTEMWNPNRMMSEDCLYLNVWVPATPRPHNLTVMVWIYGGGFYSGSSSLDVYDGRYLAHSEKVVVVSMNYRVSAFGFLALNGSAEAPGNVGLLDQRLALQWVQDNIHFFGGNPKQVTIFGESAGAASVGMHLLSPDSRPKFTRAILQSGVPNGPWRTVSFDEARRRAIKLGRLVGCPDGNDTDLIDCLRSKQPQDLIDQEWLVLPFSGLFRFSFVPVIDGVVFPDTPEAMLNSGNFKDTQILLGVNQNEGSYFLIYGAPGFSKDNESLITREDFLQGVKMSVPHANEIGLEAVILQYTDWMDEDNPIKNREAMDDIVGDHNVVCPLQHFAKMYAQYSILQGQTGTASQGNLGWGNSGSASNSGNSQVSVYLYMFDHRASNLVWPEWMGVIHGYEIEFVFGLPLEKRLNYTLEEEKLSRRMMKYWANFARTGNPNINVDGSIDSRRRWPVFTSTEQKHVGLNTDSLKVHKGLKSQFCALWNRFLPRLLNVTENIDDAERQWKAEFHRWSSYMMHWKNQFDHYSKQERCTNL

Row | Structure (SMILES) | IC50 [µM]
1 | N#Cc1c(-c2cccc([N+](=O)[O-])c2)c2c([nH]c1=O)/C(=C/c1cccc([N+](=O)[O-])c1)CNC2 [4g, (E)-8-(3-Nitrobenzylidene)-4-(3-nitrophenyl)-2-oxo-1,2,5,6,7,8-hexahydro-1,6-naphthyridine-3-carbonitrile] | 16.86 ± 0.02

same assay, conditions: Ellman's method, AChE from electric eel, triplicate, five concentrations; read-out: AChE inhibition (IC50 ± SD)

Row | Structure (SMILES) | IC50 [µM]
2 | N#Cc1c(-c2ccccc2)c2c([nH]c1=O)/C(=C/c1ccccc1)CNC2 [4a, (E)-8-Benzylidene-2-oxo-4-phenyl-1,2,5,6,7,8-hexahydro-1,6-naphthyridine-3-carbonitrile] | 11.18 ± 0.02
3 | Cc1ccccc1/C=C1\CNCc2c1[nH]c(=O)c(C#N)c2-c1ccccc1C [4b, (E)-8-(2-Methylbenzylidene)-2-oxo-4-(o-tolyl)-1,2,5,6,7,8-hexahydro-1,6-naphthyridine-3-carbonitrile] | 7.2 ± 0.02
4 | N#Cc1c(-c2ccccc2Cl)c2c([nH]c1=O)/C(=C/c1ccccc1Cl)CNC2 [4c, (E)-8-(2-Chlorobenzylidene)-4-(2-chlorophenyl)-2-oxo-1,2,5,6,7,8-hexahydro-1,6-naphthyridine-3-carbonitrile] | 15.21 ± 0.1
5 | N#Cc1c(-c2ccccc2Br)c2c([nH]c1=O)/C(=C/c1ccccc1Br)CNC2 [4d, (E)-8-(2-Bromobenzylidene)-4-(2-bromophenyl)-2-oxo-1,2,5,6,7,8-hexahydro-1,6-naphthyridine-3-carbonitrile] | 18.16 ± 0.02
6 | COc1ccccc1/C=C1\CNCc2c1[nH]c(=O)c(C#N)c2-c1ccccc1OC [4e, (E)-8-(2-Methoxybenzylidene)-4-(2-methoxyphenyl)-2-oxo-1,2,5,6,7,8-hexahydro-1,6-naphthyridine-3-carbonitrile] | 2.12 ± 0.02
7 | N#Cc1c(-c2ccc(Cl)cc2Cl)c2c([nH]c1=O)/C(=C/c1ccc(Cl)cc1Cl)CNC2 [4f, (E)-8-(2,4-Dichlorobenzylidene)-4-(2,4-dichlorophenyl)-2-oxo-1,2,5,6,7,8-hexahydro-1,6-naphthyridine-3-carbonitrile] | 24.72 ± 0.01
8 | Cc1ccc(/C=C2\CNCc3c2[nH]c(=O)c(C#N)c3-c2ccc(C)cc2)cc1 [4h, (E)-8-(4-Methylbenzylidene)-2-oxo-4-(p-tolyl)-1,2,5,6,7,8-hexahydro-1,6-naphthyridine-3-carbonitrile] | 7.16 ± 0.02
9 | N#Cc1c(-c2ccc(Cl)cc2)c2c([nH]c1=O)/C(=C/c1ccc(Cl)cc1)CNC2 [4i, (E)-8-(4-Chlorobenzylidene)-4-(4-chlorophenyl)-2-oxo-1,2,5,6,7,8-hexahydro-1,6-naphthyridine-3-carbonitrile] | 3.86 ± 0.02
10 | N#Cc1c(-c2ccc(F)cc2)c2c([nH]c1=O)/C(=C/c1ccc(F)cc1)CNC2 [4j, (E)-8-(4-Fluorobenzylidene)-4-(4-fluorophenyl)-2-oxo-1,2,5,6,7,8-hexahydro-1,6-naphthyridine-3-carbonitrile] | 14.16 ± 0.02
11 | N#Cc1c(-c2cccc3ccccc23)c2c([nH]c1=O)/C(=C/c1cccc3ccccc13)CNC2 [4k, (E)-4-(Naphthalen-1-yl)-8-(naphthalen-1-ylmethylene)-2-oxo-1,2,5,6,7,8-hexahydro-1,6-naphthyridine-3-carbonitrile] | 6.86 ± 0.02
